# Earlier results, collected in patent publication US20060194234A1, “Methods for identifying small molecules that bind specific RNA structural motifs” (PTC Therapeutics, Inc., priority 2001, published 2006).
# Assays:
# [1] = test system: IIB (or RRE) region of HIV RNA; settings: appears to result from competitive binding directly to the RRE RNA structural motif
# [2] = test system: 60-mer from ribosomal RNA; settings: literature statement in background
Compound,block of the binding of Rev to its viral recognition element in the IIB (or RRE) region of HIV RNA [1],binding to a 60-mer from ribosomal RNA [2]
NC[C@H]1O[C@H](O[C@H]2[C@H](O)[C@@H](O[C@H]3O[C@H](CO)[C@@H](O)[C@H](N)[C@H]3O)[C@H](N)C[C@@H]2N)[C@H](N)C[C@@H]1O [tobramycin],can block the binding,
NC[C@@H]1O[C@H](O[C@H]2[C@@H](O)[C@H](O[C@@H]3[C@@H](O)[C@H](N)C[C@H](N)[C@H]3O[C@H]3O[C@H](CO)[C@@H](O)C[C@H]3N)O[C@@H]2CO)[C@H](N)[C@@H](O)[C@@H]1O[C@H]1O[C@H](CO)[C@@H](O)[C@H](O)[C@@H]1O [lividomycin A],can block the binding,
NC[C@@H]1O[C@H](O[C@H]2[C@@H](O)[C@H](O[C@@H]3[C@@H](O)[C@H](N)C[C@H](N)[C@H]3O[C@H]3O[C@H](CN)[C@@H](O)[C@H](O)[C@H]3N)O[C@@H]2CO)[C@H](N)[C@@H](O)[C@@H]1O [neomycin B],can block the binding,
thiostreptone,,binds tightly
